In one assay the target is AMPA receptors. In words: binding affinity for the AMPA receptors (Honore et al.). As to conditions: Table 1, AMPA.
Assay [1] addresses kainate site (non-NMDA receptor). In words: binding affinity for the kainate site (non-NMDA receptor) (London and Coyle). As to conditions: Table 1, KA.

One may read the IC50 as the point on the concentration scale where inhibition reaches its midpoint. Low values mean greater potency, high ones weaker potency.

`CCc1c(Br)cc2[nH]c(=O)c(=O)[nH]c2c1CN(C)CC(=O)O` [Compound 2, [(7-Bromo-6-ethyl-2,3-dioxo-1,2,3,4-tetrahydro-quinoxalin-5-ylmethyl)-methyl-amino]-acetic acid]: the concentration for half-maximal inhibition (IC50) on AMPA receptors was 2350 nM. In addition, the “IC50 KA” value in assay [1] was determined as 6720 nM.

With `CCOC(=O)CN(C)Cc1c(CC)c([N+](=O)[O-])cc2[nH]c(=O)c(=O)[nH]c12` [Compound 3, [(6-Ethyl-7-nitro-2,3-dioxo-1,2,3,4-tetrahydro-quinoxalin-5-ylmethyl)-methyl-amino]-acetic acid ethyl ester], the IC50 on AMPA receptors stood at 128 nM. The “IC50 KA” value in assay [1] turned out to be 3480 nM.

In the case of `CCc1ccc2[nH]c(=O)c(=O)[nH]c2c1CN(C)CC(=O)O` [Compound 4, [(6-Ethyl-2,3-dioxo-1,2,3,4-tetrahydro-quinoxalin-5ylmethyl)-methyl-amino]-acetic acid], the IC50 on AMPA receptors stood at 3920 nM. In addition, the “IC50 KA” value in assay [1] turned out to be 17050 nM.

As for `C=Cc1c(Br)cc2[nH]c(=O)c(=O)[nH]c2c1CN(C)CC(=O)O` [Compound 1, [(7-Bromo-2,3-dioxo-6-vinyl-1,2,3,4-tetrahydro-quinoxalin-5-ylmethyl)-methyl-amino]-acetic acid], at AMPA receptors, the IC50 came to 1760 nM. In assay [1], the “IC50 KA” value was 4680 nM.

The values are drawn from US5614508A, “Amino acid derivatives of substituted quinoxaline 2,3-dione derivatives as glutamate receptor antagonists” (Warner-Lambert Company, priority 1995, dated 1997).
